Measurements published in ChEMBL document CHEMBL1151561, “Benzopyran sulfoxide derivatives as New potassium channel activator” (Bioorg Med Chem Lett, 1993).
pEC50: −log10 of the molar value.

organism: Canis familiaris; assay: The compound was tested for its relaxation activity on smooth muscle of canine mesenteric artery; type: functional; settings: Canis lupus familiaris

pEC50	SMILES
6.65	CC1(C)C=C(c2cccc[n+]2[O-])c2cc(C#N)ccc2O1
5.71	CC1(C)C=C(C2CCC[S+]2[O-])c2cc([N+](=O)[O-])ccc2O1 (stereo not given)
7.21	CC1(C)C=C(c2cccc[n+]2[O-])c2cc([N+](=O)[O-])ccc2O1
5.71	CC1(C)Oc2ccc(C#N)cc2[C@@H](N2CCCC2=O)[C@@H]1O [CROMAKALIM]
4.91	CC1(C)C[C@](O)(C2CCC[S+]2[O-])c2cc([N+](=O)[O-])ccc2O1 (stereo not given in full)
